The test system of the test is P388 leukemia ip, CD2F1 mice, survival T/C. In words: NCI In Vivo Anticancer Drug Screen. Data for tumor model P388 Leukemia (intraperitoneal) in CD2F1 (CDF1) mice. Particulars: endpoint: median survival time, higher = longer survival. The essentials: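 Mice carrying the transplanted tumor received test compound or vehicle. Survival was recorded in each group, and the value is the treated-group measurement divided by that of the vehicle-treated control group.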

[1] abbreviates: dose: 50.0 mg/kg/injection, schedule: Q01DX005 (ip), vehicle: Klucel (hydroxypropylcellulose) (HPC).
Setting [2] is: dose: 100.0 mg/kg/injection, schedule: Q01DX005 (ip), vehicle: Klucel (hydroxypropylcellulose) (HPC).
[3] abbreviates: dose: 200.0 mg/kg/injection, schedule: Q01DX005 (ip), vehicle: Klucel (hydroxypropylcellulose) (HPC).
Where [4] appears, read: dose: 60.0 mg/kg/injection, schedule: Q01DX005 (ip), vehicle: saline with Tween-80.
[5] abbreviates: dose: 120.0 mg/kg/injection, schedule: Q01DX005 (ip), vehicle: saline with Tween-80.
[6] abbreviates: dose: 240.0 mg/kg/injection, schedule: Q01DX005 (ip), vehicle: saline with Tween-80.
Where [7] appears, read: dose: 100.0 mg/kg/injection, schedule: Q04DX002 (ip), vehicle: Klucel (hydroxypropylcellulose) (HPC).
Where [8] appears, read: dose: 400.0 mg/kg/injection, schedule: Q04DX002 (ip), vehicle: Klucel (hydroxypropylcellulose) (HPC).
[9] abbreviates: dose: 50.0 mg/kg/injection, schedule: Q01DX009 (ip), vehicle: Klucel (hydroxypropylcellulose) (HPC).
Where [10] appears, read: dose: 100.0 mg/kg/injection, schedule: Q01DX009 (ip), vehicle: Klucel (hydroxypropylcellulose) (HPC).
[11] abbreviates: dose: 50.0 mg/kg/injection, schedule: Q01DX005 (ip), vehicle: saline with Tween-80.
[12] abbreviates: dose: 100.0 mg/kg/injection, schedule: Q01DX005 (ip), vehicle: saline with Tween-80.
Setting [13] is: dose: 200.0 mg/kg/injection, schedule: Q01DX005 (ip), vehicle: saline with Tween-80.
Where [14] appears, read: dose: 200.0 mg/kg/injection, schedule: Q01DX009 (ip), vehicle: Klucel (hydroxypropylcellulose) (HPC).

Several values for one entry are separate records, joined by “and”; a condition that tells them apart may be missing. Identical values can stand only once. Inconclusive results and toxic doses are left out. Peptide text beside a SMILES is read from it.

For `CCOc1cc2c(cc1C(C)c1ccc(OC)c(OC)c1)OCO2` (configuration not stated), the T/C by setting is: under setting [1], 100 % of control; under setting [2], 105 % of control; under setting [3], 107 % of control.

In the case of `COC(=O)CCSC(=O)Nc1cccc(C(F)(F)F)c1`, the T/C reads like this: under setting [1], 97 % of control; under setting [2], 98 % of control; under setting [3], 104 % of control.

For the molecule `O=C1CCC(C2(O)c3ccccc3-c3ccccc32)C(=O)N1` (configuration not stated), the T/C under setting [4] is 95 % of control, the T/C under setting [5] is 96 % of control and the T/C under setting [6] was 95 % of control.

Regarding `O=C1CCCSc2ccccc21`, the T/C by setting is: (dose: 25.0 mg/kg/injection, schedule: Q01DX009 (ip), vehicle: saline with Tween-80) 100 % of control; (dose: 50.0 mg/kg/injection, schedule: Q01DX009 (ip), vehicle: saline with Tween-80) 94 % of control; (dose: 100.0 mg/kg/injection, schedule: Q01DX009 (ip), vehicle: saline with Tween-80) 102 % of control; (dose: 200.0 mg/kg/injection, schedule: Q01DX009 (ip), vehicle: saline with Tween-80) 106 % of control.

On to `O=C1C(CO)=C[C@H](O)[C@H]2O[C@@H]12`, for which the T/C (dose: 6.25 mg/kg/injection, schedule: Q01DX009 (ip), vehicle: saline + alcohol) was 119 % of control; the T/C (dose: 12.5 mg/kg/injection, schedule: Q01DX009 (ip), vehicle: saline + alcohol) was 152 % of control; the T/C (dose: 25.0 mg/kg/injection, schedule: Q01DX009 (ip), vehicle: saline + alcohol) was 152 % of control and 157 % of control; the T/C (dose: 50.0 mg/kg/injection, schedule: Q01DX009 (ip), vehicle: saline + alcohol) was 106 % of control.

In the case of `COC1=CC(=O)C2CC=C(C)C3CC(=O)OC1C23C` (configuration not stated), the T/C was 100 % of control under setting [7]; 95 % of control (dose: 200.0 mg/kg/injection, schedule: Q04DX002 (ip), vehicle: Klucel (hydroxypropylcellulose) (HPC)); 98 % of control under setting [8].

Turning to `CC(C)CC(NC(=O)C(N)Cc1c[nH]c2ccccc12)C(N)=O` (stereo not drawn) (H-Trp-Leu-NH2; configuration not given here), the T/C is, setting by setting: (dose: 200.0 mg/kg/injection, schedule: Q04DX003 (ip), vehicle: saline) 95 % of control; (dose: 400.0 mg/kg/injection, schedule: Q04DX003 (ip), vehicle: saline) 106 % of control.

Take `CC(C)(C)OC(=O)N1CC(O)CC1C(=O)O` (configuration not stated): the T/C (dose: 50.0 mg/kg/injection, schedule: Q01DX005 (ip), vehicle: saline) was 91 % of control and the T/C (dose: 100.0 mg/kg/injection, schedule: Q01DX005 (ip), vehicle: saline) was 91 % of control.

Take `CCOC(=O)C(=CNc1ccc2n[nH]nc2c1)C(=O)OCC`: the T/C runs as follows: under setting [9], 100 % of control; under setting [10], 108 % of control.

For the molecule `N#Cc1ccc(N=NN2CCOC2)cc1`, the T/C was 86 % of control under setting [4], 100 % of control under setting [5] and 93 % of control under setting [6].

`O=c1nc2scc(-c3ccccc3)n2c2sc3c(c12)CCCC3`: the T/C is, setting by setting: (dose: 100.0 mg/kg/injection, schedule: Q01DX001 (ip), vehicle: saline with Tween-80) 106 % of control; (dose: 200.0 mg/kg/injection, schedule: Q01DX001 (ip), vehicle: saline with Tween-80) 95 % of control; (dose: 400.0 mg/kg/injection, schedule: Q01DX001 (ip), vehicle: saline with Tween-80) 93 % of control.

On to `Cc1ccc(/C(=N/NS(=O)(=O)c2ccc(C)cc2)C(C)c2ccccc2)cc1` (configuration not stated), for which the T/C is, setting by setting: (dose: 100.0 mg/kg/injection, schedule: Q01DX001 (ip), vehicle: Klucel (hydroxypropylcellulose) (HPC)) 99 % of control; (dose: 200.0 mg/kg/injection, schedule: Q01DX001 (ip), vehicle: Klucel (hydroxypropylcellulose) (HPC)) 100 % of control; (dose: 400.0 mg/kg/injection, schedule: Q01DX001 (ip), vehicle: Klucel (hydroxypropylcellulose) (HPC)) 99 % of control.

For `CC1C(O)C(O)CC2COCC21` (configuration not stated), the T/C is 100 % of control (dose: 37.5 mg/kg/injection, schedule: Q01DX001 (ip), vehicle: saline); 100 % of control (dose: 75.0 mg/kg/injection, schedule: Q01DX001 (ip), vehicle: saline); 104 % of control (dose: 150.0 mg/kg/injection, schedule: Q01DX001 (ip), vehicle: saline).

Turning to `COc1cccc(C(=O)c2ccc(OC)cc2C(=O)O)c1`, the T/C is, setting by setting: under setting [1], 95 % of control; under setting [2], 101 % of control; under setting [3], 97 % of control.

On to `O=C(Nc1ccc(Cl)cc1)Nc1nnc2nc(C(C(=O)/C=C/c3ccccc3)c3nc4nnc(NC(=O)Nc5ccc(Cl)cc5)n4[nH]c3=O)c(=O)[nH]n12`, for which the T/C under setting [4] was 103 % of control, the T/C under setting [5] was 95 % of control and the T/C under setting [6] is 91 % of control.

Turning to `CCOC(=O)C(=[N+]=[N-])C(=O)OCC12CCC=C1CC1(CC2)OCCO1` (configuration not stated), the T/C was 101 % of control under setting [11], 108 % of control under setting [12] and 102 % of control under setting [13].

For the molecule `Cc1ccc(S(=O)(=O)NC(=O)Nn2c(C)nc3ccccc3c2=O)cc1`, the T/C under setting [1] was 103 % of control, the T/C under setting [2] was 102 % of control and the T/C under setting [3] was 106 % of control.

`CCN(CC)CCCNCc1cc(-c2ccccc2)nc2cc(Cl)ccc12`: the T/C is 102 % of control under setting [11], 100 % of control under setting [12] and 100 % of control under setting [13].

Take `CSc1nsc(SC)c1-c1ccc(Cl)cc1`: the T/C under setting [9] was 99 % of control, the T/C under setting [10] is 100 % of control and the T/C under setting [14] was 92 % of control.

As for `NC1=NC2CC(N1)c1ccc(O)cc1O2` (configuration not stated), the T/C reads like this: (dose: 50.0 mg/kg/injection, schedule: Q01DX009 (ip), vehicle: saline) 109 % of control; (dose: 100.0 mg/kg/injection, schedule: Q01DX009 (ip), vehicle: saline) 110 % of control.

As for `S=C(Nc1ccc(Cl)c(Cl)c1)Nc1ccccc1SCc1cc(Cl)cc2c1OCOC2`, the T/C by setting is: under setting [9], 96 % of control; under setting [10], 88 % of control; under setting [14], 98 % of control.

With `CC1(C)C=Cc2cc3c(cc2O1)OC[C@H]1c2cc4c(cc2O[C@@H]31)OCO4`, the T/C runs as follows: (dose: 25.0 mg/kg/injection, schedule: Q04DX002 (ip), vehicle: Klucel (hydroxypropylcellulose) (HPC)) 97 % of control; (dose: 50.0 mg/kg/injection, schedule: Q04DX002 (ip), vehicle: Klucel (hydroxypropylcellulose) (HPC)) 100 % of control; under setting [7], 100 % of control; under setting [8], 89 % of control.

`Cc1cc(NC(=O)Nc2cccc(C3=NCCN3)c2)ccc1NC(=O)Nc1cccc(C2=NCCN2)c1`: the T/C was 108 % of control (dose: 100.0 mg/kg/injection, schedule: Q04DX003 (ip), vehicle: saline with Tween-80); 108 % of control (dose: 200.0 mg/kg/injection, schedule: Q04DX003 (ip), vehicle: saline with Tween-80); 120 % of control (dose: 400.0 mg/kg/injection, schedule: Q04DX003 (ip), vehicle: saline with Tween-80).

Regarding `COc1cc(C[C@@H]2COC(=O)[C@]2(O)Cc2ccc(O)c(OC)c2)ccc1O`, the T/C is, setting by setting: (dose: 1.25 mg/kg/injection, schedule: Q01DX009 (ip), vehicle: alcohol) 100 % of control; (dose: 2.5 mg/kg/injection, schedule: Q01DX009 (ip), vehicle: alcohol) 113 % of control; (dose: 5.0 mg/kg/injection, schedule: Q01DX009 (ip), vehicle: alcohol) 104 % of control; (dose: 8.0 mg/kg/injection, schedule: Q01DX009 (ip), vehicle: saline + alcohol) 124 % of control; (dose: 16.0 mg/kg/injection, schedule: Q01DX009 (ip), vehicle: saline + alcohol) 154 % of control.

Consider `COC1/C=C/OC2(C)Oc3c(C)c(O)c4c(O)c(c(CNCc5ccccc5)c(O)c4c3C2=O)NC(=O)/C(C)=C\C=C\C(C)C(O)C(C)C(O)C(C)C(OC(C)=O)C1C` (configuration not stated), for which the T/C (dose: 25.0 mg/kg/injection, schedule: Q01DX009 (ip), vehicle: other) was 92 % of control; the T/C (dose: 50.0 mg/kg/injection, schedule: Q01DX009 (ip), vehicle: other) was 91 % of control; the T/C (dose: 100.0 mg/kg/injection, schedule: Q01DX009 (ip), vehicle: other) is 88 % of control; the T/C (dose: 400.0 mg/kg/injection, schedule: Q01DX009 (ip), vehicle: other) is 89 % of control.

These data come from PubChem BioAssay AID330 (DTP/NCI, 2004).
